Source: patent US20110065796A1 (SHIRE LLC, priority 2009, published 2011)
One block for each molecule: values may come before it.

Experiments:
[1] = Prodrug stability in freshly withdrawn porcine intestinal fluid; type: in vitro ADME; conditions: for Prodrug remaining at 3 h: porcine intestinal fluid pH 6.8, 37° C., in % (unit assumed)
From the text: Many of the peptidases in the intestinal lumen may not be present in the USP simulated intestinal fluid preparations previously described. […] The prodrugs evaluated were selected on the basis of adequate pharmacokinetics (see Example 8).

[2] = Prodrug stability in simulated gastric fluid; conditions: 37° C., pH 1.1, HPLC
Description: (§1) The remaining concentrations of the prodrugs were then assayed by H PLC.

[3] = Prodrug stability in simulated intestinal fluid; conditions: 37° C., pH 6.8, HPLC
Description: as §1

Structure (SMILES): N=C(NC(=O)Cc1c(Cl)cccc1Cl)NC(=O)OCCNC(=O)CC[C@H](N)C(=O)O [Compound 58, Guanfacine (Ethanolamine-(S)-γ-Glutamate) Carbamate]
- Prodrug remaining at 3 h [1]: 81.26 ± 4.57
- % prodrug remaining following incubation for 1 h in simulated gastric fluid pH 1.1 [2]: 96%
- % prodrug remaining following incubation for 2 h in simulated intestinal fluid pH 6.8 [3]: 99%

Structure (SMILES): CSCC[C@@H](N)C(=O)N[C@@H](CCC(=O)NC(=N)NC(=O)Cc1c(Cl)cccc1Cl)C(=O)O [Compound 44, Guanfacine ((S)-γ-Glutamate-(R)-Methionine) Amide]
- % prodrug remaining following incubation for 1 h in simulated gastric fluid pH 1.1 [2]: 75%
- % prodrug remaining following incubation for 2 h in simulated intestinal fluid pH 6.8 [3]: 85%

Structure (SMILES): CCC(C)[C@@H](N)C(=O)NCCCC(=O)NC(=N)NC(=O)Cc1c(Cl)cccc1Cl (stereo partly drawn) [Compound 50, Guanfacine (GABA-(R)-Isoleucine) Amide]
- % prodrug remaining following incubation for 1 h in simulated gastric fluid pH 1.1 [2]: 85%
- % prodrug remaining following incubation for 2 h in simulated intestinal fluid pH 6.8 [3]: 81%

Structure (SMILES): CC(C)[C@H](N)C(=O)N[C@H](C(=O)O)[C@@H](C)OC(=O)NC(=N)NC(=O)Cc1c(Cl)cccc1Cl [Compound 20, Guanfacine ((S)-Threonine-(S)-Valine) Carbamate]
- % prodrug remaining following incubation for 1 h in simulated gastric fluid pH 1.1 [2]: 79%
- % prodrug remaining following incubation for 2 h in simulated intestinal fluid pH 6.8 [3]: 100%

Structure (SMILES): CC(C)[C@H](NC(=O)CC(C)(C)CC(=O)NC(=N)NC(=O)Cc1c(Cl)cccc1Cl)C(=O)O [Compound 33, Guanfacine (3,3-dimethylglutaryl-(S)-Valine) Amide]
- % prodrug remaining following incubation for 1 h in simulated gastric fluid pH 1.1 [2]: 79%
- % prodrug remaining following incubation for 2 h in simulated intestinal fluid pH 6.8 [3]: 99%

Structure (SMILES): CC(C)[C@H](NC(=O)COC(=O)NC(=N)NC(=O)Cc1c(Cl)cccc1Cl)C(=O)O [Compound 29, Guanfacine (Glycolyl-(S)-Valine) Carbamate]
- % prodrug remaining following incubation for 1 h in simulated gastric fluid pH 1.1 [2]: 80%
- % prodrug remaining following incubation for 2 h in simulated intestinal fluid pH 6.8 [3]: 99%

Structure (SMILES): CC(C)[C@@H](N)C(=O)N[C@@H](COC(=O)NC(=N)NC(=O)Cc1c(Cl)cccc1Cl)C(=O)O [Compound 18, Guanfacine ((S)-Serine-(R)-Valine) Carbamate]
- % prodrug remaining following incubation for 1 h in simulated gastric fluid pH 1.1 [2]: 74%
- % prodrug remaining following incubation for 2 h in simulated intestinal fluid pH 6.8 [3]: 108%

Structure (SMILES): N=C(NC(=O)CC[C@H](NC(=O)[C@H](N)CCC(N)=O)C(=O)O)NC(=O)Cc1c(Cl)cccc1Cl [Compound 46, Guanfacine ((S)-γ-Glutamate-(R)-Glutamine) Amide]
- % prodrug remaining following incubation for 1 h in simulated gastric fluid pH 1.1 [2]: 61%
- % prodrug remaining following incubation for 2 h in simulated intestinal fluid pH 6.8 [3]: 81%

Structure (SMILES): CC(C)[C@@H](NC(=O)COC(=O)NC(=N)NC(=O)Cc1c(Cl)cccc1Cl)C(=O)O [Compound 30, Guanfacine (Glycolyl -(R)-Valine) Carbamate]
- % prodrug remaining following incubation for 1 h in simulated gastric fluid pH 1.1 [2]: 77%
- % prodrug remaining following incubation for 2 h in simulated intestinal fluid pH 6.8 [3]: 160%

Structure (SMILES): CNCC(=O)N[C@@H](CCOC(=O)NC(=N)NC(=O)Cc1c(Cl)cccc1Cl)C(=O)O [Compound 66, Guanfacine ((S)-Homoserine-Sarcosine) Carbamate]
- % prodrug remaining following incubation for 1 h in simulated gastric fluid pH 1.1 [2]: 86%
- % prodrug remaining following incubation for 2 h in simulated intestinal fluid pH 6.8 [3]: 101%

Structure (SMILES): CC(C)[C@@H](N)C(=O)N[C@H](C(=O)O)[C@@H](C)OC(=O)NC(=N)NC(=O)Cc1c(Cl)cccc1Cl [Compound 21, Guanfacine ((S)-Threonine-(R)-Valine) Carbamate]
- % prodrug remaining following incubation for 1 h in simulated gastric fluid pH 1.1 [2]: 83%
- % prodrug remaining following incubation for 2 h in simulated intestinal fluid pH 6.8 [3]: 103%

Structure (SMILES): CC[C@H](C)[C@H](N)C(=O)NCCOC(=O)NC(=N)NC(=O)Cc1c(Cl)cccc1Cl [Compound 59, Guanfacine (Ethanolamine-(S)-Isoleucine) Carbamate]
- % prodrug remaining following incubation for 1 h in simulated gastric fluid pH 1.1 [2]: 92%
- % prodrug remaining following incubation for 2 h in simulated intestinal fluid pH 6.8 [3]: 100%

Structure (SMILES): N=C(NC(=O)CC[C@H](NC(=O)[C@H](N)Cc1ccc(O)cc1)C(=O)O)NC(=O)Cc1c(Cl)cccc1Cl [Compound 45, Guanfacine ((S)-γ-Glutamate-(R)-Tyrosine) Amide]
- % prodrug remaining following incubation for 1 h in simulated gastric fluid pH 1.1 [2]: 74%
- % prodrug remaining following incubation for 2 h in simulated intestinal fluid pH 6.8 [3]: 91%

Other lines, results leading:

- stability in porcine intestinal fluid (in words) ([1]; porcine intestinal fluid): very unstable
- Prodrug remaining at 3 h [1]: 13.8 ± 0.6
- % prodrug remaining following incubation for 1 h in simulated gastric fluid pH 1.1 [2]: 97%
- % prodrug remaining following incubation for 2 h in simulated intestinal fluid pH 6.8 [3]: 91%
Structure (SMILES): CC(C)[C@H](N)C(=O)NCCOC(=O)NC(=N)NC(=O)Cc1c(Cl)cccc1Cl [Compound 26, Guanfacine (Ethanolamine-(S)-Valine) Carbamate]

- % prodrug remaining following incubation for 1 h in simulated gastric fluid pH 1.1 [2]: 80%
- % prodrug remaining following incubation for 2 h in simulated intestinal fluid pH 6.8 [3]: 103%
Structure (SMILES): C[C@H]1N=C(NC(=O)Cc2c(Cl)cccc2Cl)NC1=O [Compound 51, Guanfacine-(R)-Alanine Cyclic Adduct]

- % prodrug remaining following incubation for 1 h in simulated gastric fluid pH 1.1 [2]: 51%
- % prodrug remaining following incubation for 2 h in simulated intestinal fluid pH 6.8 [3]: 91%
Structure (SMILES): O=C1CCN=C(NC(=O)Cc2c(Cl)cccc2Cl)N1 [Compound 34, Guanfacine-β-Alanine Cyclic Adduct]

- % prodrug remaining following incubation for 1 h in simulated gastric fluid pH 1.1 [2]: 90%
- % prodrug remaining following incubation for 2 h in simulated intestinal fluid pH 6.8 [3]: 99%
Structure (SMILES): N=C(NC(=O)Cc1c(Cl)cccc1Cl)NC(=O)OCC[C@H](N)C(=O)O [Compound 65, Guafacine (S)-Homoserine Carbamate]

- % prodrug remaining following incubation for 1 h in simulated gastric fluid pH 1.1 [2]: 89%
- % prodrug remaining following incubation for 2 h in simulated intestinal fluid pH 6.8 [3]: 104%
Structure (SMILES): C[C@@H]1N=C(NC(=O)Cc2c(Cl)cccc2Cl)NC1=O [Compound 39, Guanfacine-(S)-AlanineCyclic Adduct]

- % prodrug remaining following incubation for 1 h in simulated gastric fluid pH 1.1 [2]: 92%
- % prodrug remaining following incubation for 2 h in simulated intestinal fluid pH 6.8 [3]: 102%
Structure (SMILES): C[C@@H](OC(=O)NC(=N)NC(=O)Cc1c(Cl)cccc1Cl)[C@H](NC(=O)[C@@H]1CCC(=O)N1)C(=O)O [Compound 19, Guanfacine ((S)-Threonine-(S)-Pyroglutamic acid) Carbamate]

- % prodrug remaining following incubation for 1 h in simulated gastric fluid pH 1.1 [2]: 83%
- % prodrug remaining following incubation for 2 h in simulated intestinal fluid pH 6.8 [3]: 101%
Structure (SMILES): NCCCC[C@@H]1N=C(NC(=O)Cc2c(Cl)cccc2Cl)NC1=O [Compound 36, Guanfacine-(S)-Lysine Cyclic Adduct]

- % prodrug remaining following incubation for 1 h in simulated gastric fluid pH 1.1 [2]: 106%
- % prodrug remaining following incubation for 2 h in simulated intestinal fluid pH 6.8 [3]: 85%
Structure (SMILES): CC(C)[C@@H](N)C(=O)NCCCC(=O)NC(=N)NC(=O)Cc1c(Cl)cccc1Cl [Compound 22, Guanfacine (GABA-(R)-Valine) Amide]

- % prodrug remaining following incubation for 1 h in simulated gastric fluid pH 1.1 [2]: 70%
- % prodrug remaining following incubation for 2 h in simulated intestinal fluid pH 6.8 [3]: 87%
Structure (SMILES): NC(=O)CC[C@@H]1N=C(NC(=O)Cc2c(Cl)cccc2Cl)NC1=O [Compound 38, Guanfacine-(S)-Glutamine Cyclic Adduct]
